In US20040002476A1, “Modified fluorinated nucleoside analogues” (priority 2002, published 2004):
Read-outs that look alike come from different tables or passages of the source.

Test system: HCV replicon
Test: HCV replicon system in Huh7 cells (Q-RT-PCR of replicon RNA)
Conditions: Hepatitis C virus, Huh-7, 96 h
[1] = read-out: average EC90 value, corrected for cellular toxicity (ΔΔCt vs rDNA/rRNA)

Experimental: Antiviral testing of candidate compounds for Flaviviridae: The HCV replicon system in Huh7 cells.
Add the test compound immediate after seeding the cells and incubate for a period of 3 to 7 days at 37° C. in an incubator. Media is then removed, and the cells are prepared for total nucleic acid extraction (including replicon RNA and host RNA). Replicon RNA can then be amplified in a Q-RT-PCR protocol, and quantified accordingly. […] In such experiments, one way to express the antiviral effectiveness of a compound is to subtract the threshold RT-PCR cycle of the test compound with the average threshold RT-PCR cycle of the negative control. This value is called DeltaCt (ΔCt or DCt). […] As a positive control, recombinant interferon alfa-2a (Roferon-A, Hoffmann-Roche, New Jersey, USA) is taken alongside as positive control.
In a typical setting, a compound might reduce both the host RNA polymerase activity and the replicon-encoded polymerase activity. Therefore, quantification of rRNA (or any other host RNA polymerase I product) or beta-actin mRNA (or any other host RNA polymerase II) and comparison with RNA levels of the no-drug control is a relative measurement of the effect of the test compound on host RNA polymerases.
With the availability of both the HCV ΔCt data and the rRNA ΔCt, a specificity parameter can be introduced. This parameter is obtained by subtracting both ΔCt values from each other.
In another typical setting, a compound might reduce the host RNA polymerase activity, but not the host DNA polymerase activity. Therefore, quantification of rDNA or beta-actin DNA (or any other host DNA fragment) and comparison with DNA levels of the no-drug control is a relative measurement of the inhibitory effect of the test compound on cellular DNA polymerases
With the availability of both the HCV ΔCt data and the rDNA ΔCt, a specificity parameter can be introduced. This parameter is obtained by subtracting both ΔCt values from each other. […] However, compounds with a ΔΔCt value of less than 2, but with limited molecular cytotoxicty (rDNA ΔCT between 0 and 2) may be desired. […]

Row | Structure (SMILES) | EC90 (read-out: EC90 (1-log reduction of replicon HCV RNA, 3.3 Ct) (converted)) [µM] | EC90 [1] [µM]
1 | Nc1ccn([C@@H]2O[C@H](CO)[C@@H](O)[C@H]2F)c(=O)n1 [2′-Deoxy-2′F-Cytidine, 2′-deoxy-2′-fluorocytidine] | ~5 | ~10
2 | Nc1ccn([C@@H]2O[C@H](CO)[C@@H](O)C2(F)F)c(=O)n1 [Gemcitabine, β-D-2′,2′-difuoro-2′ deoxycytidine, reference compound] | – | ~0.3
